Tests used:
smoking behavior = conditions: cited from earlier work
[1] = test system: tobacco consumption of habitual smokers; assay: General observations of treatment on tobacco consumption and subjective effects; type: in vivo, human (test subjects
From the text: In a preferred embodiment, finely divided ethyl maltol is distributed in a chewing gum base, which when chewed by the subject, results in a gradual release of ethyl maltol into the oral cavity. When administered in appropriate amounts over a period of several days, there results a gradual decrease in the number of cigarettes smoked and the length of time they are smoked. […] Reductions in the frequency and quantity of smoking have been observed in test subjects who were unaware that their smoking behavior was monitored. […] Subjectively, test subjects experience a reduced desired to smoke, tend to neglect the opportunities to light up a cigarette and tend to leave cigarettes unsmoked in the ashtray after a few puffs. The effect is sufficiently subtle that a smoker is sometimes unaware that their tobacco consumption rate was decreased until such point as the lowered consumption rate becomes obvious. For smokers sincerely desiring to reduce or eliminate their smoking, the effect of the treatment is most gratifying. However, for smokers who are not psychologically committed to giving up smoking, the effects may be alarming. It is of course, possible to override the effects of the treatment by conscious effort to smoke at the pre-treatment rate.
Smoking behavior is complex and includes cigarette, pipe and cigar smoking. Both from the standpoint of habituation and of health hazard, cigarette smoking is considered to be the most serious. It is contemplated that the treatment method described herein will be effective to inhibit all forms of smoking behavior and combinations thereof, involving the consumption of tobacco. For convenience, the ensuing discussion focuses on cigarette smoking, as exemplary of smoking behavior in general. Tobacco consumption is a function the number of cigarettes smoked and the proportion of each cigarette smoked. Reduction of consumption is measured by comparison with a smoker's pretreatment consumption rate. All data used herein are expressed as percent reduction, i.e., the differential between pretreatment and current smoking consumption rate divided by the pretreatment rate, times 100. All rates are calculated to take into account both the number of cigarettes smoked and the proportion of each smoked.
Duration of treatment may be as little as ten days, preferably 20 to 30 days. As might be expected with a complex behavior such as smoking, where psychological and social factors play a major role in addition to individual variations in nicotine susceptibility and responsiveness to gamma pyrone, the rate of smoking reduction during treatment is highly variable. Typically, a gradual reduction to about 50% to the pretreatment rate is observed over the first four to six days. Frequently, little or no reduction is observed for the first two days, although occasionally a dramatic reduction is observed almost immediately. In the ensuing seven to ten days, further reductions, typically 70 to 100%, are observed. Reduction below the 50% level in the first 3-5 days is sometimes accompanied by the physiological (but not psychological) symptoms of nicotine withdrawl, such as vertigo, alimentary distress, diuresis, scotoma and disorientation. Such symptoms have never been observed in non-smoking control subjects using the same gamma pyrone dosages. […] The entire course of treatment is therefore extended somewhat, preferably to about 20 to 30 days total. […]

[2] = test system: hexobarbital-induced sleeping time; conditions: 300 to 500 mg per kg; cited from earlier work
[3] = cited from earlier work
[4] = test system: rate of weight gain in animals; conditions: animal feeds, up to 200 grams per ton; cited from earlier work
[5] = cited from earlier work; remark: listed apart in the source
[6] = test system: convulsions produced by pentylenetetrazole or strychnine; conditions: 300 to 500 mg per kg; cited from earlier work
mice = conditions: cited from earlier work
[7] = test system: spontaneous motor activity; conditions: mice, 75 mg/kg; cited from earlier work
rat brain cortex slices = conditions: in vitro; cited from earlier work

Row | SMILES | effectiveness versus placebo for smoking (smoking behavior; controlled double blind tests) | pharmacological action (smoking behavior; in vivo) | withdrawal syndrome on discontinuation (smoking behavior; in vivo) | tobacco consumption of habitual smokers ([1]; appropriate dosage levels and rates) | minimum effective dose relative to ethyl maltol ([1]; in vivo) [times greater] | hexobarbital-induced sleeping time [2] | absorption ([3]; after oral administration) | excretion ([3]; after oral administration) | form of excretion ([3]; after oral administration) | metabolism and excretion ([3]; in vivo) | rate of weight gain [4] | consumption per day ([5]; as much as 1.5 grams per day) | safe average daily intake ([5]; per day) [mg per kg] | convulsions produced by pentylenetetrazole or strychnine [6] | acute LD50 (mice) [mg per kg] | spontaneous motor activity, decrease [7] | oxygen intake by rat brain cortex slices (rat brain cortex slices)
1 | CN1[C@@H](CC(=O)c2ccccc2)CCC[C@H]1C[C@H](O)c1ccccc1 [lobeline] | ineffective, i.e., no more effective than placebos | weak nicotine-like action | apparently discontinuable without a withdrawal syndrome | – | – | – | – | – | – | – | – | – | – | – | – | – | –
2 | Cc1occc(=O)c1O [maltol, 3-hydroxy-2-methyl-4-pyrone] | – | – | – | significantly reduces the tobacco consumption of habitual smokers | 4 to 6 | potentiating hexobarbital-induced sleeping time | rapidly absorbed | rapidly excreted | primarily as glucuronide and ethereal sulfate conjugates | rapidly metabolized and excreted | improves the rate of weight gain | completely harmless | 1 | inhibited convulsions | 820 | approximately 50% | not affected

From patent US4276890A, “Tobacco smoking inhibitor” (priority 1979, dated 1981)
